Assay results published in patent US5010058A, “3,5,6-substituted derivatives of 1,2-O-isopropylidene-α,D-glucofuranose and intermediates for preparing these derivatives” (501 Greenwich Pharmaceuticals Incorporated, priority 1989, dated 1991).
Read-outs that look alike come from different tables or passages of the source.

What was measured:
[1] = tested on: normal spleen cells / splenic T-lymphocytes (Con-A stimulated); test: Con-A blastogenic response of normal spleen cells (3H-thymidine incorporation); type: cell-based, mouse (C57Bl/6); conditions: for Blastogenic response of normal spleen cells to Con-A: triplicates ± SD; for inhibition at 1 µg/mL / inhibition at 10 µg/mL / inhibition at 25 µg/mL / inhibition at 100 µg/mL / inhibition at 300 µg/mL / inhibition at 750 µg/mL: Mus musculus, T-lymphocyte, 72 h, percent change from no compound, read-out: Blastogenic response of normal spleen cells to Con-A, % effect
Text: A simple method is used to screen compounds for their ability to modulate T-lymphocyte activity which comprises assessing the capacity of the compounds to alter the activation of murine spleen cells in response to T-lymphocyte mitogen activators, such as concanavalin-A (Con-A). The method used to measure the effects of the compounds of the present invention on the blastogenic response of spleen cells to the T-lymphocyte mitogen, (i.e., Con-A), is as follows.
Spleen cells were removed from normal C57Bl/6 mice and homogenized to obtain a single cell suspension. Erythrocytes were lysed by hypotonic shock. Upon determination of the viability and concentration of the remaining lymphoid cells, they were adjusted to a concentration of 4×10^6 /ml. These spleen cells (2×10^5 cells per […]) were seeded into wells of microtiter plates with the compounds of the present invention having the following dose concentrations:
Con-A was also added to these cultures at a final concentration of […]. These cells were cultured for 3 days at 37° C. in a humidified atmosphere of 5% CO2 in air. For the last 18 hours of culture, […] H-thymidine was added to each well. The cells were then precipitated by a multichannel harvester. The amount of ^3 H-thymidine incorporated by the cultured cells were measured in a liquid scintillation counter (Disintegrations per min., DPM). All assays were conducted in triplicate.
The incubation medium used for the blastogenesis assays was RPMI-1640 medium containing 10% fetal bovine serum, […] streptomycin, 100 U/ml penicillin, […] Hepes buffer solution, 5×10^-5 M 2-mercaptoethanol and 2 mM glutamine.
(§1) ^a Experimental compounds were first suspended in DMSO or ethanol,
^b The effect of experimental compounds on the blastogenic response o

[2] = tested on: BUD-8 skin cell fibroblasts; test: Proliferation of BUD-8 skin cell fibroblasts (3H-thymidine uptake); type: cell-based, human; conditions: for 3H-Thymidine uptake by BUD-8 skin cells: triplicates ± SD
Description: The human skin cell fibroblast line, BUD-8, was originally derived from the normal skin of a person and can now be obtained from the American Type Culture Collection.
The number of BUD-8 cells was expanded for use by culture in 25 cm^2 flasks at 37° C. in an atmosphere of 5% CO2 in air. At approximately 4-5 five day intervals, or when confluence was reached, the cells were passaged. This was accomplished by detaching the cells with a Teflon scraper, washing and reseeding the cells at a lower density into fresh tissue culture flasks.
The effect of these compound on the proliferative capacity of human BUD-8 skin fibroblasts was measured with the use of a ^3 H-thymidine incorporation assay using culture conditions which were similar to those used for the Con-A blastogenesis assay, described previously. Cultured skin cells were detached from the surface of tissue culture flasks mechanically with a Teflon scraper. The cells were washed, resuspended in incubation medium and the viabilities were determined. These cells were then plated in triplicate at a density of 2×10^3 cells/0.1 ml/microtiter well for the proliferation assays. […] Eighteen hours later, each of the BUD-8 cultures was examined morphologically for evidence of compound-induced toxicity such as cell rounding or granularity. The thymidine-pulsed cells were then precipitated and the amount of ^3 H-thymidine incorporation was counted in a liquid scintillation counter. […]
as §1
^b The effect of experimental compounds on the proliferation of BUD8

[3] = tested on: leukotriene B4 (LTB4) secretion by BUD-8 skin cell fibroblasts; test: Secretion of LTB4 by BUD-8 skin cell fibroblasts (radioimmunoassay); type: cell-based, human; conditions: for LTB4 in supernatant of BUD-8 skin cells: triplicate ± SD
Description: Levels of LTB4 in aliquots of BUD-8 skin cell cultures supernatants were quantified by radioimmunoassay. The cells were first plated in triplicate at a density of 1×10^4 cells/0.1 ml/microtiter well for the assay to quantitate LTB4. To these cells was added 0.1 ml incubation medium containing compound 80182, or nordihydroguaiaretic acid (NDGA) to inhibit leukotriene production. After 18 hours of culture, samples of the BUD-8 skin cell supernatants were collected from one set of microtiter plates and frozen until assayed for LTB4 content using a radioimmunoassay. Into a polypropylene tube were mixed 0.1 ml anti-LTB4, 0.1 ml^3 H-LTB4 and 0.1 ml LTB4 standard or LTB4 containing sample. The BUD-8 skin cell culture supernatants were used directly in the radioimmunoassay. The tubes were refrigerated overnight. A charcoal solution (0.5 ml of 0.5% charcoal Norit A) was added and each tube was centrifuged. The radio activity in the supernatant was then counted in a liquid scintillation counter. | ^a Experimental compounds were first suspended in DMSO or ethanol, | ^b The effect of experimental compounds on the amount of LTB4 in […]

[4] = Con-A 1 ug/ml, compound 1 ug/ml
[5] = Con-A 1 ug/ml, compound 10 ug/ml
[6] = Con-A 1 ug/ml, compound 25 ug/ml
[7] = Con-A 1 ug/ml, compound 100 ug/ml
[8] = Con-A 1 ug/ml, compound 300 ug/ml
[9] = Con-A 1 ug/ml, compound 750 ug/ml
[10] = Con-A 4 ug/ml, compound 1 ug/ml
[11] = Con-A 4 ug/ml, compound 10 ug/ml
[12] = Con-A 4 ug/ml, compound 25 ug/ml
[13] = Con-A 4 ug/ml, compound 100 ug/ml
[14] = Con-A 4 ug/ml, compound 300 ug/ml
[15] = Con-A 4 ug/ml, compound 750 ug/ml

## CCCCCCCCCCCNCC(O)C1OC2OC(C)(C)OC2C1O [Ex. 2, 1,2-O-Isopropylidene-6-deoxy-6-aminoundecyl-α, D-glucofuranose]
[1]; [4]
  Blastogenic response of normal spleen cells to Con-A: 13,581 ± 4,804 cpm
  inhibition at 1 µg/mL: 81%
[1]; [5]
  Blastogenic response of normal spleen cells to Con-A: 5,014 ± 89 cpm
  inhibition at 10 µg/mL: 93%
[1]; [6]
  Blastogenic response of normal spleen cells to Con-A: 3,312 ± 1,541 cpm
  inhibition at 25 µg/mL: 95%
[1]; [7]
  Blastogenic response of normal spleen cells to Con-A: 2,967 ± 964 cpm
  inhibition at 100 µg/mL: 96%
[1]; [8]
  Blastogenic response of normal spleen cells to Con-A: 2,934 ± 299 cpm
  inhibition at 300 µg/mL: 96%
[1]; [9]
  Blastogenic response of normal spleen cells to Con-A: 2,020 ± 651 cpm
  inhibition at 750 µg/mL: 97%
[1]; [10]
  Blastogenic response of normal spleen cells to Con-A: 18,607 ± 8,159 cpm
  inhibition at 1 µg/mL: 81%
[1]; [11]
  Blastogenic response of normal spleen cells to Con-A: 4,293 ± 3,517 cpm
  inhibition at 10 µg/mL: 96%
[1]; [12]
  Blastogenic response of normal spleen cells to Con-A: 1,635 ± 635 cpm
  inhibition at 25 µg/mL: 98%
[1]; [13]
  Blastogenic response of normal spleen cells to Con-A: 2,618 ± 444 cpm
  inhibition at 100 µg/mL: 97%
[1]; [14]
  Blastogenic response of normal spleen cells to Con-A: 2,787 ± 413 cpm
  inhibition at 300 µg/mL: 97%
[1]; [15]
  Blastogenic response of normal spleen cells to Con-A: 1,575 ± 480 cpm
  inhibition at 750 µg/mL: 98%
[2]
  anti-proliferative effect on skin cells: anti-proliferative effect that was statistically significant
[2]; Homo sapiens, Fibroblast, compound 1 ug/ml, percent change from no compound, read-out: 3H-Thymidine uptake by BUD-8 skin cells, % effect
  inhibition at 1 µg/mL: 1%
[2]; Homo sapiens, Fibroblast, compound 10 ug/ml, percent change from no compound, read-out: 3H-Thymidine uptake by BUD-8 skin cells, % effect
  inhibition at 10 µg/mL: 46%
[2]; Homo sapiens, Fibroblast, compound 25 ug/ml, percent change from no compound, read-out: 3H-Thymidine uptake by BUD-8 skin cells, % effect
  inhibition at 25 µg/mL: 77%
[2]; Homo sapiens, Fibroblast, compound 100 ug/ml, percent change from no compound, read-out: 3H-Thymidine uptake by BUD-8 skin cells, % effect
  inhibition at 100 µg/mL: 89%
[2]; Homo sapiens, Fibroblast, compound 300 ug/ml, percent change from no compound, read-out: 3H-Thymidine uptake by BUD-8 skin cells, % effect
  inhibition at 300 µg/mL: 90%
[2]; Homo sapiens, Fibroblast, compound 750 ug/ml, percent change from no compound, read-out: 3H-Thymidine uptake by BUD-8 skin cells, % effect
  inhibition at 750 µg/mL: 85%
[2]; compound 1 ug/ml
  3H-Thymidine uptake by BUD-8 skin cells: 6,069 ± 636 cpm
[2]; compound 10 ug/ml
  3H-Thymidine uptake by BUD-8 skin cells: 3,363 ± 227 cpm
[2]; compound 25 ug/ml
  3H-Thymidine uptake by BUD-8 skin cells: 1,430 ± 1,176 cpm
[2]; compound 100 ug/ml
  3H-Thymidine uptake by BUD-8 skin cells: 649 ± 114 cpm
[2]; compound 300 ug/ml
  3H-Thymidine uptake by BUD-8 skin cells: 595 ± 110 cpm
[2]; compound 750 ug/ml
  3H-Thymidine uptake by BUD-8 skin cells: 911 ± 863 cpm
[3]
  effect on LTB4 secretion / activity: produced an effect upon the secretion of leukotriene B4
[3]; Homo sapiens, Fibroblast, 18 h, compound 1 ug/ml, percent change from no compound, read-out: LTB4 secretion, % Effect
  inhibition at 1 µg/mL: -15%
[3]; Homo sapiens, Fibroblast, 18 h, compound 10 ug/ml, percent change from no compound, read-out: LTB4 secretion, % Effect
  inhibition at 10 µg/mL: 37%
[3]; Homo sapiens, Fibroblast, 18 h, compound 25 ug/ml, percent change from no compound, read-out: LTB4 secretion, % Effect
  inhibition at 25 µg/mL: 58%
[3]; Homo sapiens, Fibroblast, 18 h, compound 100 ug/ml, percent change from no compound, read-out: LTB4 secretion, % Effect
  inhibition at 100 µg/mL: 22%
[3]; Homo sapiens, Fibroblast, 18 h, compound 300 ug/ml, percent change from no compound, read-out: LTB4 secretion, % Effect
  inhibition at 300 µg/mL: 60%
[3]; Homo sapiens, Fibroblast, 18 h, compound 750 ug/ml, percent change from no compound, read-out: LTB4 secretion, % Effect
  inhibition at 750 µg/mL: 42%
[3]; compound 1 ug/ml
  calculated LTB4 secreted/10^5 BUD-8 cells: 862 pg LTB4 per 10^5 cells
  LTB4 in supernatant of BUD-8 skin cells: 44.4 ± 3.8 pg LTB4 /100 ul supernatant
[3]; compound 10 ug/ml
  calculated LTB4 secreted/10^5 BUD-8 cells: 485 pg LTB4 per 10^5 cells
  LTB4 in supernatant of BUD-8 skin cells: 24.6 ± 5.3 pg LTB4 /100 ul supernatant
[3]; compound 25 ug/ml
  calculated LTB4 secreted/10^5 BUD-8 cells: 303 pg LTB4 per 10^5 cells
  LTB4 in supernatant of BUD-8 skin cells: 16.4 ± 2.0 pg LTB4 /100 ul supernatant
[3]; compound 100 ug/ml
  calculated LTB4 secreted/10^5 BUD-8 cells: 575 pg LTB4 per 10^5 cells
  LTB4 in supernatant of BUD-8 skin cells: 30.1 ± 3.9 pg LTB4 /100 ul supernatant
[3]; compound 300 ug/ml
  calculated LTB4 secreted/10^5 BUD-8 cells: 281 pg LTB4 per 10^5 cells
  LTB4 in supernatant of BUD-8 skin cells: 15.3 ± 1.1 pg LTB4 /100 ul supernatant
[3]; compound 750 ug/ml
  calculated LTB4 secreted/10^5 BUD-8 cells: 422 pg LTB4 per 10^5 cells
  LTB4 in supernatant of BUD-8 skin cells: 22.4 ± 4.2 pg LTB4 /100 ul supernatant
